{"source": "patent US3959283A", "about": "“Amino-derivatives of 1,4-benzodioxan” (Laboratoire L. Lafon, priority 1974, dated 1976)", "key": {"[1]": {"test_system": "adrenergic receptors", "assay": "α-blocking activity, parenteral (LL 1756)", "format": "in vivo"}, "[2]": {"test_system": "femoral artery", "assay": "Vasodilating properties, injection into the femoral artery", "format": "in vivo, dogs", "protocol": "On injection into the femoral artery, no effect is observed at doses of less than 100 μg/kg. […] At these doses, no effect is observed on the arterial pressure AP measured in accordance with the usual conditions."}, "[3]": {"test_system": "vertebral artery", "assay": "Vasodilating properties, injection into the vertebral artery", "format": "in vivo, dogs", "protocol": "On injection into the vertebral artery, no effect is observed at doses of less than 1 mg/kg. At a dose of 10 mg/kg, the flow rate increases by 37% and at a dose of 20 mg/kg it only increases by 27%. At these two doses, the arterial pressure decreases respectively by 14 and 28% although no effect had been observed during the injection into the femoral artery."}, "[4]": {"test_system": "vertebral, femoral and mesenteric arteries", "assay": "Vasodilating properties, intravenous administration, arterial flow rates", "format": "in vivo, dogs", "conditions": "for increase in vertebral flow rate: 0.25 mg/kg perfused i.v.", "quoted_text": "When administered intravenously, the following results were observed:\nA third test is carried out by injecting, without stopping, 0.5, 1, 2 and 4 mg/kg, that is to say a total of 7.5 mg/kg."}, "[5]": {"test_system": "adrenergic receptors", "assay": "Effect on responses to adrenalin, acetylcholine, isoprenalin and vagus stimulation (product of Example 2)", "format": "in vivo, dogs"}, "[6]": {"test_system": "dogs", "assay": "Coronary flow rate and haemodynamics in anaesthetised dogs, intravenous perfusion", "format": "in vivo", "quoted_text": "(§2) During the series of pharmacological tests, the following parameters were used:\n(§3) Arterial pressure (abbreviated to AP): this parameter, expressed in mm Hg) is evaluated in accordance with the usual conditions.\nArterial resistance: this parameter (expressed in dynes/sec./cm^^-5) is calculated according to the ratio [formula]\nCardiac index: this parameter is expressed in ml/min./kg.\nSystolic index: this parameter is equal to the ratio cardiac index/frequency.\nCardiac work: this parameter (expressed in kgm/min.) is calculated according to the relationship: Cardiac work = average AP (mm Hg) × 1.36 = cardiac output (1/min.) × 10^^-3.\nRatio dp/dt: this parameter corresponds to the variation in pressure expressed in mm Hg per second (in English: Rate of rise of left ventricular pressure).\nThe technique used to measure the ratio dp/dt is as follows:\nThe cardiac output is determined in Beagle dogs weighing 10 to 15 kg, anesthetised with pentobarbital, by injecting Cardiogreen (1 mg in 0.5 ml) into the right ventricle. A catheter introduced via the carotid artery into the aorta makes it possible to aspirate arterial blood at the rate of 25 ml/min. and to pass it in front of the photoelectric cell of a Beckman cardiodensitometer. The results are interpreted in accordance with the Hamilton method."}, "[7]": {"test_system": "man", "assay": "Clinical studies in man, tablets or injectable ampoules (product of Example 2)", "format": "in vivo", "conditions": "tablets (50 mg) or injectable ampoules (10 mg)", "from_the_text": "In clinical studies, good results were obtained in man by administering tablets such as: […]"}, "[8]": {"test_system": "adrenergic receptors", "assay": "Oral α-blocking activity in dogs (hypertensive effects of adrenalin)", "format": "in vivo", "conditions": "orally"}, "[9]": {"test_system": "dogs", "assay": "Cardiovascular properties of the product of Example 3 in dogs", "format": "in vivo", "quoted_text": "as §3\nWhen administered intravenously to dogs at doses ranging from 1 mg to 13 mg/kg, the following results are observed:"}, "[10]": {"test_system": "adrenergic receptors", "assay": "Reversal of hypertensive effect of adrenalin (α-blocking), product of Example 3", "format": "in vivo, dogs"}, "[11]": {"test_system": "man", "assay": "Administration to man in vascular complaints (product of Example 3)", "format": "in vivo", "conditions": "tablets containing 20 mg, 2 to 3 per day"}, "[12]": {"test_system": "dogs", "assay": "Intravenous perfusion in dogs anaesthetised with Nembutal (product of Example 8)", "format": "in vivo", "conditions": "2.5 mg/kg i.v. over 5 minutes", "quoted_text": "as §2, §3\nThe product of Example 8 was perfused intravenously over the course of 5 minutes at doses of 2.5 and 5 mg/kg."}, "[13]": {"test_system": "adrenergic receptors", "assay": "Reversal of hypertensive effect of adrenalin (α-blocking), product of Example 8", "format": "in vivo", "conditions": "dogs"}, "[14]": {"test_system": "femoral and vertebral arteries", "assay": "Oral administration, arterial flow rates (product of Example 8)", "format": "in vivo, dogs", "conditions": "orally"}, "[15]": {"assay": "Acute intravenous toxicity in mice, products of Examples 10 to 13 (LD50)", "conditions": "mouse, in vivo, i.v., group consisting solely of female mice", "from_the_text": "(a) determined on a group of male and female mice,\n(b) determined on a group consisting solely of female mice."}, "[16]": {"test_system": "adrenergic receptors", "assay": "Inhibition/reversal of tension effects of adrenalin, intravenous (products of Examples 11 to 13)", "format": "in vivo", "conditions": "i.v.", "protocol": "the doses of CRL 40,150 from 0.5 to 4 mg/kg being administered successively."}, "[17]": {"test_system": "adrenalin", "assay": "Effect on the amines and reflexes: adrenalin", "conditions": "in vivo", "from_the_text": "(§1) In Table III below, the effects of the products on the amines and the reflexes have been summarised."}, "[18]": {"test_system": "acetylcholine", "assay": "Effect on the amines and reflexes: acetylcholine", "conditions": "in vivo", "from_the_text": "as §1"}, "[19]": {"test_system": "DMPP", "assay": "Effect on the amines and reflexes: DMPP", "conditions": "in vivo", "from_the_text": "as §1"}, "[20]": {"test_system": "peripheral vagus", "assay": "Effect on the amines and reflexes: stimulation of the peripheral vagus", "conditions": "in vivo", "from_the_text": "as §1"}, "[21]": {"test_system": "central vagus", "assay": "Effect on the amines and reflexes: stimulation of the central vagus", "conditions": "in vivo", "from_the_text": "as §1"}, "[22]": {"conditions": "another test, 2 mg/kg at the very start"}}, "note": "Where a name gives a salt, the structure may show the parent alone.", "data": [{"smiles": "OCCN1CCN(CC2COc3ccccc3O2)CC1", "note": "(stereo not drawn) [Example 1, 1-[2-(1,4-Benzodioxanyl)-methyl]-4-(2-hydroxyethyl)-piperazine dihydrochloride]", "values": [{"measurement": "α-blocking activity", "setting": "[1]", "value": "α-blocking when administered parenterally"}]}, {"smiles": "OCCN1CCN(CC2COc3ccccc3O2)CC1", "note": "(stereo not drawn) [Example 2, 1-[2-(1,4-Benzodioxanyl)-methyl]-4-(2-hydroxyethyl)-piperazine hemifumarate]", "values": [{"measurement": "effect on arterial pressure AP", "setting": "[2]; injection into femoral artery, 1, 10 and 20 mg/kg", "value": "no effect"}, {"measurement": "effect on flow rate of the femoral artery", "setting": "[2]; injection into femoral artery, doses less than 100 μg/kg", "value": "no effect"}, {"measurement": "increase in flow rate", "setting": "[3]; 10 mg/kg", "value": 37, "unit": "%"}, {"measurement": "increase in flow rate", "setting": "[3]; 20 mg/kg", "value": 27, "unit": "%"}, {"measurement": "effect on vertebral flow rate", "setting": "[3]; doses less than 1 mg/kg", "value": "no effect"}, {"measurement": "duration of increase in vertebral flow rate", "setting": "[4]; [22]", "value": "more than one hour"}, {"measurement": "flow rate of the femoral artery", "setting": "[4]; [22]", "value": "only increased greatly during the injection"}, {"measurement": "increase in flow rate of the vertebral artery", "setting": "[4]; [22]", "value": 87, "unit": "%"}, {"measurement": "increase in vertebral flow rate", "setting": "[4]; first test, end of perfusion", "value": 14, "unit": "%"}, {"measurement": "increase in vertebral flow rate", "setting": "[4]; first test, start of perfusion", "value": 90, "unit": "%"}, {"measurement": "effect of additional injections on the flow rate", "setting": "[4]; first test, additional 0.5 and 5 mg/kg", "value": "no effect on the flow rate"}, {"measurement": "effect of subsequent injections on the flow rate", "setting": "[4]; second test, subsequent 1 and 2 mg/kg", "value": "no effect on the flow rate"}, {"measurement": "vasodilating action (summary)", "setting": "[4]; summary", "value": "can dilate either the vertebral artery or the femoral artery or both"}, {"measurement": "femoral flow rate", "setting": "[4]; third test, 0.5, 1, 2 and 4 mg/kg i.v. without stopping", "value": "increased very much by the first injection, decreases during the subsequent injections"}, {"measurement": "effect of the stimulation of the peripheral vagus", "setting": "[5]; dogs", "value": "does not alter"}, {"measurement": "effects of the injection of acetylcholine", "setting": "[5]; dogs", "value": "does not alter"}, {"measurement": "effects of the injection of isoprenalin", "setting": "[5]; dogs", "value": "does not alter"}, {"measurement": "α-lytic action (summary)", "setting": "[5]; summary", "value": "acts as an α-lytic product"}, {"measurement": "increase in coronary flow rate", "setting": "[6]; 5 mg/kg i.v., 2 hours after the injection", "value": 75, "unit": "%"}, {"measurement": "increase in coronary flow rate, maximum effect", "setting": "[6]; 5 mg/kg i.v., after 1 hour", "value": 200, "unit": "%"}, {"measurement": "increase in maximum intraventricular pressure", "setting": "[6]; 5 mg/kg i.v., for 1 hour", "value": 56, "unit": "%"}, {"measurement": "increase in the differential arterial pressure", "setting": "[6]; 5 mg/kg i.v., for 1 hour", "value": 40, "unit": "%"}, {"measurement": "increase in ratio dp/dt", "setting": "[6]; 5 mg/kg i.v., for more than 1 hour", "value": 180, "unit": "%"}, {"measurement": "tachycardia", "setting": "[6]; 5 mg/kg i.v., increase", "value": 40, "unit": "%"}, {"measurement": "effect on arterial pressure (summary)", "setting": "[6]; at a higher dose", "value": "at a higher dose, it is hypotensive"}, {"measurement": "tachycardiac properties (summary)", "setting": "[6]; at low doses", "value": "possesses tachycardiac properties at low doses"}, {"measurement": "cardiac work and coronary irrigation (summary)", "setting": "[6]; summary", "value": "increases the cardiac work and, in parallel fashion, it increases the coronary irrigation"}, {"measurement": "clinical result", "setting": "[7]", "value": "good results"}, {"measurement": "hypertensive effects of adrenalin", "setting": "[8]; 5 mg/kg", "value": "decreases the said effects"}, {"measurement": "hypertensive effects of adrenalin", "setting": "[8]; 7 mg/kg", "value": "inhibits them strongly"}, {"measurement": "α + effect of adrenalin", "setting": "[8]; 10 mg/kg", "value": "overcomes the α + effect of adrenalin"}]}, {"smiles": "OCC(O)CN1CCN(CC2COc3ccccc3O2)CC1", "note": "(stereo not drawn) [Example 3, 1-[2-(1,4-Benzodioxanyl)-methyl]-4-(2,3-dihydroxypropyl)-piperazine dihydrochloride]", "values": [{"measurement": "effect on the AP", "setting": "[9]; i.v., 1 mg to 13 mg/kg", "value": "little effect on the AP or a slight hypotension"}, {"measurement": "vertebral flow rate", "setting": "[9]; i.v., 1 mg to 13 mg/kg", "value": "no effect"}, {"measurement": "cardiovascular variations after intraduodenal administration", "setting": "[9]; intraduodenal, 10 and 50 mg/kg", "value": "the variations described after intravenous injection are found again"}, {"measurement": "α-blocking action (conclusion)", "setting": "[10]; conclusion", "value": "α-blocking agent"}, {"measurement": "hypertensive effect of adrenalin", "setting": "[10]; intraduodenal, 10 mg/kg", "value": "reversal of the hypertensive effect of adrenalin"}, {"measurement": "result in vascular complaints", "setting": "[11]", "value": "good results in vascular complaints"}]}, {"smiles": "c1cnc(N2CCN(CC3COc4ccccc4O3)CC2)nc1", "note": "(stereo not drawn) [Example 8, 1-[2-(1,4-Benzodioxanyl)-methyl]-4-(2-pyrimidinyl)-piperazine dihydrochloride]", "values": [{"measurement": "decrease in the vertebral flow rate", "setting": "[12]", "value": 19, "unit": "%"}, {"measurement": "effect on the mesenteric flow rate", "setting": "[12]", "value": "practically no effect"}, {"measurement": "increase in the differential arterial pressure", "setting": "[12]", "value": 50, "unit": "%"}, {"measurement": "femoral vasodilating effect", "setting": "[12]; increase", "value": 19, "unit": "%"}, {"measurement": "tachycardia", "setting": "[12]; increase", "value": 19, "unit": "%"}, {"measurement": "hypertensive effect of adrenalin", "setting": "[13]", "value": "the hypertensive effect of adrenalin is reversed, and this manifests itself in an α-blocking action"}, {"measurement": "passage into the general circulation", "setting": "[14]; 10 mg/kg", "value": "passes into the general circulation"}, {"measurement": "rise in femoral flow rate", "setting": "[14]; 1 to 10 mg/kg, for 30 minutes", "value": 200, "unit": "%"}, {"measurement": "rise in vertebral flow rate", "setting": "[14]; 1 to 10 mg/kg, for 30 minutes", "value": 60, "unit": "%"}, {"measurement": "flow rate of the femoral artery", "setting": "[14]; doses less than 100 μg/kg", "value": "does not alter"}, {"measurement": "flow rate of the vertebral artery", "setting": "[14]; doses less than 100 μg/kg", "value": "does not alter"}]}, {"smiles": "COc1cc(OC)c(C(=O)CN2CCN(CC3COc4ccccc4O3)CC2)c(OC)c1", "note": "(stereo not drawn) [Example 13, 1-[2-(1,4-Benzodioxanyl)-methyl]-4-(2,4,6-trimethoxyphenacyl)-piperazine dihydrochloride]", "values": [{"measurement": "LD50", "setting": "[15]", "value": 58, "unit": "mg/kg"}, {"measurement": "dose from which the hypertensive effect of adrenalin is reduced", "setting": "[16]", "value": "≥ 0.1", "unit": "mg/kg"}, {"measurement": "dose from which the hypotensive effect appears", "setting": "[16]; average of three different experiments", "value": "≥ 0.2", "unit": "mg/kg"}, {"measurement": "Effect on the amines and reflexes: adrenalin", "setting": "[17]", "value": "reversal"}, {"measurement": "Effect on the amines and reflexes: acetylcholine", "setting": "[18]", "value": "no change"}, {"measurement": "Effect on the amines and reflexes: DMPP", "setting": "[19]", "value": "effect reversed"}, {"measurement": "Effect on the amines and reflexes: stimulation of the peripheral vagus", "setting": "[20]", "value": "not changed"}, {"measurement": "Effect on the amines and reflexes: stimulation of the central vagus", "setting": "[21]", "value": "slightly reduced"}]}]}
